Test system: intimal hyperplasia
Assay: Patch plasty implantation at the iliac bifurcation, animal model
Format: in vivo, mini-pigs of the Gottingen type
Procedure: In a last step the prostheses were implanted in a preliminary animal trial in order to show the impact on intimal hyperplasia. Six mini-pigs of the Gottingen type were used as test animals. The Aa iliacae was prepared by a transperitonial access under general i.v. anaesthesia (Thiopental®) and each a multifunctional and a standard prosthesis were introduced into every animal. All animals obtained an antibiotic prophylaxis (Spizef®) and were anticoagulized with heparin.
As medicaments each of paclitaxel, sirolimus and IS was used twice. We have applied patch plasties as the border line between prosthesis and artery is bigger compared to end-to-end anastomoses and we could thus assess intimal hyperplasia in cross-section very well. The animals were again subjected to surgery after six weeks and the iliac bifurcation was explanted. Samples in longitudinal direction were derived from the patch plastics in the proximal and in the distal region, respectively, and samples in transversal direction were derived from the medium region. These samples were fixed in formaldehyde. The further processing comprised dehydration in an increasing alcohol series until embedding into paraffin. The preparations were cut and stained in HE and Tri-PAS. Apart from the extent of IH, also integration and inflammatory reactions were assessed.

Compound: CC(=O)O[C@H]1C(=O)[C@@]2(C)[C@H]([C@H](OC(=O)c3ccccc3)[C@]3(O)C[C@H](OC(=O)[C@H](O)[C@@H](NC(=O)c4ccccc4)c4ccccc4)C(C)=C1C3(C)C)[C@]1(OC(C)=O)CO[C@@H]1C[C@@H]2O [paclitaxel]
- integration of the prosthesis (explanted after 6 weeks): well integrated from outside
- endothelialization (patch plasty, explanted after six weeks): complete suppression of endothelialization

— US20090041823A1, “Agent-releasing Vascular Prosthesis” (priority 2003, published 2009)
